Literature values in patent US20070160647A1, “Materials for medical implants and occlusive devices” (Clarity Corporation, priority 2004, published 2007).

- solubility in DMSO and alcohols: highly soluble
- solubility in water: insoluble
SMILES: Oc1cc(Cl)ccc1Oc1ccc(Cl)cc1Cl [triclosan]
